Reference: patent publication US10653648B2, “Histone acetyltransferase activators and compositions and uses thereof” (THE TRUSTEES OF COLUMBIA UNIVERSITY IN THE CITY OF NEW YORK, priority 2016, dated 2020)

Key:
[1] = cited from earlier work
[2] = tested on: Pfeiffer (EP300 wt/CREBBP mut); experiment: Synergy with romidepsin, Excess Over Bliss; assay type: cell-based; details: in combination with romidepsin, 72 hrs
Protocol: (§1) FIGS. 22A-E show the synergy effect of JF1, a HAT activator compound, with romidepsin (a pan-class HDAC inhibitor) in B-cell lymphoma cell lines. Synergy between JF1 and romidepsin was evaluated in Pfeiffer (EP300 wt/CREBBP mut) and SUDHL-10 cells (EP300 mut/CREBBP Δ). Excess Over Bliss was calculated. Drug synergy will be confirmed by Excess over bliss (EOB). Bliss is calculated by the following formula: X=(A+B)−(A*B); where X designates the combined response for the two single compounds with effects (inhibition) A and B. The difference between Bliss and observed growth inhibition (Y) induced by combinations of drugs A and B at the same dose is the termed EOB (EOB=Y−X) 18,19. An EOB>10 connotes synergy. […] Synergy effect of JF1 and romidepsin was also assessed in a panel of B-cell lymphoma cell lines (N=5) (FIGS. 22C-22E). Cells were treated by different concentrations of JF1 and romidepsin for 48 hrs (FIG. 22C) and 72 hrs (FIG. 22D) and an Excess Over Bliss was calculated for both time points for all five cell lines. SUDHL-6 and Pfeiffer (Bold) were treated 2, 2.5, […] JF1, whereas the rest of cell lines were treated with 2, 3, 4 μM JF1. Synergy is defined by an Excess Over Bliss of 10. […]
(§2) Cells were exposed to increasing concentrations of YF2 and romidepsin in various combinations for 72 hrs and Excess Over Bliss (EOB) was calculated.

[3] = tested on: seven B-cell lymphoma cell lines; experiment: Synergy with romidepsin, Excess Over Bliss, cell line panel; assay type: cell-based; details: in combination with romidepsin, 72 hrs
Protocol: as §1, §2

SUDHL-10 = experiment: Histone H3 acetylation by Western Blot; assay type: cell-based; details: in combination with romidepsin, 48 hours
Protocol: (§3) FIG. 26 provides a Western Blot showing the effect of JF1 and YF2 alone and in combination with romidepsin on histone acetylation in HAT-mutated cells lines. Cells were exposed to YF2 and romidepsin alone and in combinations for 48 hours in SUDHL-6 and SUDHL-10 (EP300 mut/CREBBP mut). The synergistic effect of YF2 on histone acetylation was evaluated by Western Blot with histone H3 serving as loading control.

SUDHL-6 = experiment: Histone H3 acetylation by Western Blot; assay type: cell-based; details: in combination with romidepsin, 48 hours
Protocol: as §3

[4] = tested on: SUDHL-6 (EP300 mut/CREBBP mut); experiment: Histone acetylation quantified by mass spectrometry; assay type: cell-based; details: combination with romidepsin (1.5 nM); YF2 6 uM, JF1 3 uM; 48 hours
Protocol: (§4) FIGS. 25A-B compare the synergy effects that HAT-activators JF1 and YF2 in combination with romidepsin have on histone acetylation in B-cell lymphoma cell lines, as quantified by mass spectrometry. In these experiments cells were seeded at 5,000 cells/mL and exposed to YF2 (6 uM), JF1 (3 uM) and romidepsin (1.5 nM) alone and in combinations for 48 hours. Following treatment, SUDHL-6 (EP300 mut/CREBBP mut, FIG. 25A) and SUDHL-10 cells (EP300 mut/CREBBP mut, FIG. 25B) were harvested for histone extraction.
For each, a synergy effect, calculated as a fold change of treatment vs. control, was observed showing an increase in histone acetylation for JF1/romidepsin and YF2/romidepsin compared to individual treatment of the cells with either JF1, YF2, or romidepsin alone (FIG. 25A).

[5] = tested on: SUDHL-10 cells (EP300 mut/CREBBP mut); experiment: as above; assay type: cell-based; details: combination with romidepsin (1.5 nM), YF2 6 uM, 48 hours
Protocol: as §4
The synergy trend for the SUDCL-6 cell line is evident for SUDCL-10 as well (FIG. 25B). In the same manner as described above, SUDHL-10 cells were treated separately with romidepsin, JF1, YF2, JF1/romidepsin, and YF2/romidepsin and the fold change in histone acetylation was measured.

Structure (SMILES)	solubility [1]	strong synergy response (EOB of at least 20) [2]	cell lines with strong synergy (EOB of at least 20) [3]	cell lines with strong synergy (EOB of at least 20), percentage [3] [%]	global acetylation of Histone H3 compared with single agent effects (SUDHL-10)	global acetylation of Histone H3 compared with single agent effects (SUDHL-6)	H3:K9AC increase in acetylation vs. YF2 or JF1 alone [4] [fold]	H3:K9AC increase in acetylation vs. control [4] [fold]	H3:K9AC increase in acetylation vs. romidepsin [4] [fold]	global acetylation of histones compared with single agent effects [4]	global acetylation of histones compared with single agent effects ([5]; JF1 3 uM)	H3:K9AC maximum synergy effect on acetylation [5]
CCOc1ccccc1C(=O)Nc1ccc(Cl)c(C(F)(F)F)c1 [CTB]	insoluble											
CCCCCCCCCCCCCCCc1cccc(OCC)c1C(=O)Nc1ccc(Cl)c(C(F)(F)F)c1 [CTPB]	insoluble											
CCOc1cccc(OCCN(C)C)c1C(=O)Nc1ccc(Cl)c(C(F)(F)F)c1 [YF2]		fail to show a strong response	6 out of 7	86	induced the global acetylation of Histone H3	induced the global acetylation of Histone H3	8	10	~2	induced the global acetylation of histones	induced the global acetylation of histones	about 1.6 fold
